Data taken from ChEMBL document CHEMBL3774326, “New derivative of 2-(2,4-dihydroxyphenyl)thieno-1,3-thiazin-4-one (BChTT) elicits antiproliferative effect via p38-mediated cell cycle arrest in cancer cells” (Bioorg Med Chem, 2016).
Activity calls are given as the source filed them. No cut-off for these calls is given here.

Experiments:
A549 [1] = assay: Antiproliferative activity against human A549 cells after 96 hrs by MTT assay; type: functional, cell-based
HT-29 [2] = assay: Antiproliferative activity against human HT-29 cells after 96 hrs by MTT assay; type: functional, cell-based
C6 [3] = assay: Antiproliferative activity against rat C6 cells after 96 hrs by MTT assay; type: functional, cell-based
[4] = Cytotoxicity against HSF assessed as cell viability at 10 to 100 uM after 24 hrs by LDH assay; conditions: human
[5] = Cytotoxicity against rat FaO cells assessed as cell viability at 10 to 100 uM after 24 hrs by LDH assay; type: cell-based
[6] = Cytotoxicity against rat OLN93 cells assessed as cell viability at 10 to 100 uM after 24 hrs by LDH assay; type: cell-based
[7] = Cytotoxicity against rat FaO cells assessed as cell viability at 100 uM after 24 hrs by LDH assay; type: cell-based
A549 [8] = assay: Inhibition of DNA synthesis in human A549 cells assessed as BrdU incorporation after 48 hrs by ELISA; type: functional, cell-based
HT-29 [9] = assay: Inhibition of DNA synthesis in human HT-29 cells assessed as BrdU incorporation after 48 hrs by ELISA; type: functional, cell-based
C6 [10] = assay: Inhibition of DNA synthesis in rat C6 cells assessed as BrdU incorporation after 48 hrs by ELISA; type: functional, cell-based
A549 [11] = assay: Effect on CREB expression in human A549 cells at 10 to 50 uM after 0.5 to 24 hrs by Western blot analysis; type: functional, cell-based
A549 [12] = assay: Induction of cell cycle arrest in human A549 cells assessed as accumulation at G0/G1 phase after 24 to 48 hrs by propidium iodide staining-based flow cytometric analysis; type: functional
A549 [13] = assay: Induction of cell cycle arrest in human A549 cells assessed as decrease in cell level at S phase after 24 to 48 hrs by propidium iodide staining-based flow cytometric analysis; type: functional
A549 [14] = assay: Induction of cell cycle arrest in human A549 cells assessed as decrease in cell level at G2M phase after 24 to 48 hrs by propidium iodide staining-based flow cytometric analysis; type: functional
HT-29 [15] = assay: Induction of cell cycle arrest in human HT-29 cells assessed as accumulation at G0/G1 phase at 50 uM after 24 to 48 hrs by propidium iodide staining-based flow cytometric analysis; type: functional
HT-29 [16] = assay: Induction of cell cycle arrest in human HT-29 cells assessed as decrease in cell level at S phase after 24 to 48 hrs by propidium iodide staining-based flow cytometric analysis; type: functional
HT-29 [17] = assay: Induction of cell cycle arrest in human HT-29 cells assessed as decrease in cell level at G2M phase after 24 to 48 hrs by propidium iodide staining-based flow cytometric analysis; type: functional
C6 [18] = assay: Induction of cell cycle arrest in rat C6 cells assessed as accumulation at G0/G1 phase after 24 to 48 hrs by propidium iodide staining-based flow cytometric analysis; type: functional
C6 [19] = assay: Induction of cell cycle arrest in rat C6 cells assessed as decrease in cell level at S phase after 24 to 48 hrs by propidium iodide staining-based flow cytometric analysis; type: functional
C6 [20] = assay: Induction of cell cycle arrest in rat C6 cells assessed as decrease in cell level at G2M phase after 24 to 48 hrs by propidium iodide staining-based flow cytometric analysis; type: functional
A549 [21] = assay: Decrease in cyclin D1 expression in human A549 cells at 50 uM after 3 to 24 hrs by Western blot analysis; type: functional, cell-based
HT-29 [22] = assay: Decrease in cyclin D1 expression in human HT-29 cells at 50 uM after 3 to 24 hrs by Western blot analysis; type: functional, cell-based
C6 [23] = assay: Decrease in cyclin D1 expression in rat C6 cells at 50 uM after 0.5 to 24 hrs by Western blot analysis; type: functional, cell-based
[24] = target: T1, Mitogen-activated protein kinase; ERK1/ERK2 (Homo sapiens) (UniProt P27361+P28482); assay: Effect on ERK1/2 phosphorylation in human A549 cells at 10 to 50 uM after 0.5 to 24 hrs by Western blot analysis; type: cell-based
T1 sequence (P27361 whole entry, looked up): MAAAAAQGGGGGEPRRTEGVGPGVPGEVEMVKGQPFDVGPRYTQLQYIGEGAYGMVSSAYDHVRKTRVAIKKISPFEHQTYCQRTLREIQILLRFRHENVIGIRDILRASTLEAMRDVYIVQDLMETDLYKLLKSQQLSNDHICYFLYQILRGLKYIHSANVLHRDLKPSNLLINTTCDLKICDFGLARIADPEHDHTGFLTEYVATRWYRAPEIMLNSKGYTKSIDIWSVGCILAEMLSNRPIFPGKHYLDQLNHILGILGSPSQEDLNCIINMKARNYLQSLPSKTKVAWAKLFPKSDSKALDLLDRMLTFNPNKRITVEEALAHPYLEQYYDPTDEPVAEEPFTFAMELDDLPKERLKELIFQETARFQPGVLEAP
T1 sequence (P28482 whole entry, looked up): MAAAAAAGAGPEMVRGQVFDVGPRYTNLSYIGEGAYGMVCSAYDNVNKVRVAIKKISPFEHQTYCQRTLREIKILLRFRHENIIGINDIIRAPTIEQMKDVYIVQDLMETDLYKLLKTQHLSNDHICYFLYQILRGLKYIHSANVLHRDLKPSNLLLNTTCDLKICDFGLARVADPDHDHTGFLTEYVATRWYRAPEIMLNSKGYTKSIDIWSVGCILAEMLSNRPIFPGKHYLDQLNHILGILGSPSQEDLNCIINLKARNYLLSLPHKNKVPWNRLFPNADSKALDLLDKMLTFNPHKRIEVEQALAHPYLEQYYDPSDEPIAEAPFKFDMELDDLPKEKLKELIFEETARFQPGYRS

[25] = target: T1, Mitogen-activated protein kinase; ERK1/ERK2 (Homo sapiens); assay: Effect on ERK1/2 phosphorylation in human HT-29 cells at 10 to 50 uM after 0.5 to 24 hrs by Western blot analysis; type: cell-based
[26] = target: Mitogen-activated protein kinase 1 and 3 (ERK2 and ERK1) (Rattus norvegicus) (UniProt P63086+P21708); assay: Effect on ERK1/2 phosphorylation in rat C6 cells at 10 to 50 uM after 0.5 to 24 hrs by Western blot analysis; type: cell-based
Mitogen-activated protein kinase 1 and 3 (ERK2 and ERK1) (Rattus norvegicus), sequence (P21708 whole entry, looked up): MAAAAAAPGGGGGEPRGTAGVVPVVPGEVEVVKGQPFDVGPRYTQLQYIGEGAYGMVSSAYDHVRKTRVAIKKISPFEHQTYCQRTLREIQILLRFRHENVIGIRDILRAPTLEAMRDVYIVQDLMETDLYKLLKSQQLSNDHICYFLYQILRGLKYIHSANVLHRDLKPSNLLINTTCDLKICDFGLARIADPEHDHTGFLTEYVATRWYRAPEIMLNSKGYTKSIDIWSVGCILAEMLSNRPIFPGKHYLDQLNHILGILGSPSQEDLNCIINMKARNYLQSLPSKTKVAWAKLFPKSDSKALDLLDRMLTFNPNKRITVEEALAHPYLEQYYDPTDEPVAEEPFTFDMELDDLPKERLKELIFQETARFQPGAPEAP
Mitogen-activated protein kinase 1 and 3 (ERK2 and ERK1) (Rattus norvegicus), sequence (P63086 whole entry, looked up): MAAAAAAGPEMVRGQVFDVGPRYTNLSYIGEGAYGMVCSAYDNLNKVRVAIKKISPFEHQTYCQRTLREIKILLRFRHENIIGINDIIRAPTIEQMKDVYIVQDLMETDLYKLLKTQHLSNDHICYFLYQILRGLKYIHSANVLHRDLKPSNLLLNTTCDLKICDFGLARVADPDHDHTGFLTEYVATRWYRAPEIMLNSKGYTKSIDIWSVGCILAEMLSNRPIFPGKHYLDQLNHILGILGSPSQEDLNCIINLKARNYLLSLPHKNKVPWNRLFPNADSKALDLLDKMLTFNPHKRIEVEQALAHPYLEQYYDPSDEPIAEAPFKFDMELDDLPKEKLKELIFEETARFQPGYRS

HT-29 [27] = assay: Effect on CREB expression in human HT-29 cells at 10 to 50 uM after 0.5 to 24 hrs by Western blot analysis; type: functional, cell-based
C6 [28] = assay: Effect on CREB expression in rat C6 cells at 10 to 50 uM after 0.5 to 24 hrs by Western blot analysis; type: functional, cell-based
A549 [29] = assay: Effect on c-myc expression in human A549 cells at 10 to 50 uM after 0.5 to 24 hrs by Western blot analysis; type: functional, cell-based
HT-29 [30] = assay: Effect on c-myc expression in human HT-29 cells at 10 to 50 uM after 0.5 to 24 hrs by Western blot analysis; type: functional, cell-based
C6 [31] = assay: Effect on c-myc expression in rat C6 cells at 10 to 50 uM after 0.5 to 24 hrs by Western blot analysis; type: functional, cell-based
[32] = target: T2, MAP kinase p38 (Homo sapiens) (UniProt O15264+Q15759+Q16539+P53778); assay: Increase in phosphorylated p38 level in human A549 cells after 0.5 hrs by Western blot analysis; type: cell-based
[33] = target: T2, MAP kinase p38 (Homo sapiens); assay: Increase in phosphorylated p38 level in human HT-29 cells after 0.5 to 24 hrs by Western blot analysis; type: cell-based
C6 [34] = assay: Increase in phosphorylated p38 level in rat C6 cells after 0.5 to 3 hrs by Western blot analysis; type: cell-based
C6 [35] = assay: Antiproliferative activity against rat C6 cells at 25 to 50 uM after 48 hrs by MTT assay in presence of p38 siRNA; type: functional, cell-based
[36] = target: T2, MAP kinase p38 (Homo sapiens); assay: Increase in phosphorylated p38 level in human A549 cells at 10 to 50 uM after 24 hrs by Western blot analysis; type: cell-based
C6 [37] = assay: Increase in phosphorylated p38 level in rat C6 cells at 10 to 50 uM after 24 hrs by Western blot analysis; type: cell-based

CC(C)(C)c1cc2nc(-c3cc(Cl)c(O)cc3O)sc(=O)c2s1
Activity (A549 [1]): Dose-dependent effect
IC50 (A549 [1]; A549, 96 h): 32.9 µM
Activity (HT-29 [2]): Dose-dependent effect
IC50 (HT-29 [2]; HT-29, 96 h): 38.6 µM
Activity (C6 [3]): Dose-dependent effect
IC50 (C6 [3]; C6, 96 h): 87.4 µM
Activity [4]: Non-toxic
Activity [5]: Non-toxic
Activity [6]: Non-toxic
Activity [7]: Toxic
inhibition (A549 [8]): Dose-dependent effect
inhibition (HT-29 [9]): Dose-dependent effect
inhibition (C6 [10]): Dose-dependent effect
Activity (A549 [11]): inactive
Activity (A549 [12]): Dose-dependent effect
Activity (A549 [13]): Dose-dependent effect
Activity (A549 [14]): Dose-dependent effect
Activity (HT-29 [15]): Dose-dependent effect
Activity (HT-29 [16]): Dose-dependent effect
Activity (HT-29 [17]): Dose-dependent effect
Activity (C6 [18]): Dose-dependent effect
Activity (C6 [19]): Dose-dependent effect
Activity (C6 [20]): Dose-dependent effect
Activity (A549 [21]): Active
Activity (HT-29 [22]): Active
Activity (C6 [23]): Active
Activity [24]: inactive
Activity [25]: inactive
Activity [26]: inactive
Activity (HT-29 [27]): inactive
Activity (C6 [28]): inactive
Activity (A549 [29]): inactive
Activity (HT-29 [30]): inactive
Activity (C6 [31]): inactive
Activity [32]: Dose-dependent effect
Activity [33]: Dose-dependent effect
Activity (C6 [34]): Dose-dependent effect
Activity (C6 [35]): inactive
Activity [36]: inactive
Activity (C6 [37]): inactive
